From ChEMBL document CHEMBL5380863 (J Med Chem, 2023)

Columns and labels:
[1] = biological target: Histone deacetylase; type: cell-based, Homo sapiens; conditions: hela
[2] = biological target: Histone deacetylase 1 (Homo sapiens, UniProt Q13547); type: cell-based, HeLa
[3] = system: K562; experiment: cells; type: functional, cell-based; conditions: Homo sapiens, K562, 72 h
[4] = system: HL-60; experiment: cells; type: functional, cell-based; conditions: Homo sapiens, HL-60, 72 h
[5] = system: HEL; experiment: cells; type: functional, cell-based; conditions: Homo sapiens, 72 h
[6] = system: MCF7; experiment: cells; type: functional, cell-based; conditions: Homo sapiens, MCF7, 72 h
[7] = system: HeLa; experiment: cells; type: functional, cell-based; conditions: Homo sapiens, 72 h
[8] = system: A549; experiment: cells; type: functional, cell-based; conditions: Homo sapiens, A549, 72 h
[9] = system: PC-3; experiment: cells; type: functional, cell-based; conditions: Homo sapiens, PC-3, 72 h
[10] = biological target: Histone deacetylase 2 (Homo sapiens, UniProt Q92769)
Histone deacetylase 2, sequence (Q92769 whole entry): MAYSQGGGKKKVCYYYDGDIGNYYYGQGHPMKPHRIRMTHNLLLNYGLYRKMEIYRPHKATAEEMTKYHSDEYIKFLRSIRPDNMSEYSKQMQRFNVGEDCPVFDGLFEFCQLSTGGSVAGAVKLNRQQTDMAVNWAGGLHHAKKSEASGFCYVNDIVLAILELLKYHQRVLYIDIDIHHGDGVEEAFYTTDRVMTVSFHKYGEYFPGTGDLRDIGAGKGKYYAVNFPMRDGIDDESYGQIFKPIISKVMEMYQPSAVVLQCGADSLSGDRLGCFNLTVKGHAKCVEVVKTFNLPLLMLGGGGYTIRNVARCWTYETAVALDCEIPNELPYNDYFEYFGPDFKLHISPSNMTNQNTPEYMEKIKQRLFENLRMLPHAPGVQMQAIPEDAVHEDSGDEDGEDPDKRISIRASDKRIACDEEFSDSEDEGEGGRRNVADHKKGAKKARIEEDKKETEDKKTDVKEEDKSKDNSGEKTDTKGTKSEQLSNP

[11] = biological target: Histone deacetylase 3 (Homo sapiens, UniProt O15379)
Histone deacetylase 3, sequence (O15379 whole entry): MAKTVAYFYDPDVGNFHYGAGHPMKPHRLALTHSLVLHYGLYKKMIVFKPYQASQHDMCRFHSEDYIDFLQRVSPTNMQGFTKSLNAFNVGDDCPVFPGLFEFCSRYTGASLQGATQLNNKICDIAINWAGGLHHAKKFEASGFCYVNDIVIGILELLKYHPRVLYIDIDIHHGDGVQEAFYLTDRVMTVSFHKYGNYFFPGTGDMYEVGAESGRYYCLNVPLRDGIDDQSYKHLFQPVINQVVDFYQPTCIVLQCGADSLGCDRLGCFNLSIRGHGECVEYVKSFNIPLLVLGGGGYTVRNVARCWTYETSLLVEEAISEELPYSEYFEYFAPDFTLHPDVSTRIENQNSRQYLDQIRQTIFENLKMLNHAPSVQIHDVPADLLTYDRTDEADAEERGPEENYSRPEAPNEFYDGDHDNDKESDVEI

[12] = biological target: Histone deacetylase 4 (Homo sapiens, UniProt P56524)
[13] = biological target: Histone deacetylase 5 (Homo sapiens, UniProt Q9UQL6)
[14] = biological target: Protein deacetylase HDAC6 (Homo sapiens, UniProt Q9UBN7)
[15] = biological target: Histone deacetylase 7 (Homo sapiens, UniProt Q8WUI4)
[16] = biological target: Histone deacetylase 8 (Homo sapiens, UniProt Q9BY41)
[17] = biological target: Histone deacetylase 9 (Homo sapiens, UniProt Q9UKV0)
[18] = biological target: Polyamine deacetylase HDAC10 (Homo sapiens, UniProt Q969S8)
[19] = biological target: Histone deacetylase 11 (Homo sapiens, UniProt Q96DB2)
[20] = biological target: Non-receptor tyrosine-protein kinase TYK2 (Homo sapiens, UniProt P29597)
Non-receptor tyrosine-protein kinase TYK2, sequence (P29597 whole entry): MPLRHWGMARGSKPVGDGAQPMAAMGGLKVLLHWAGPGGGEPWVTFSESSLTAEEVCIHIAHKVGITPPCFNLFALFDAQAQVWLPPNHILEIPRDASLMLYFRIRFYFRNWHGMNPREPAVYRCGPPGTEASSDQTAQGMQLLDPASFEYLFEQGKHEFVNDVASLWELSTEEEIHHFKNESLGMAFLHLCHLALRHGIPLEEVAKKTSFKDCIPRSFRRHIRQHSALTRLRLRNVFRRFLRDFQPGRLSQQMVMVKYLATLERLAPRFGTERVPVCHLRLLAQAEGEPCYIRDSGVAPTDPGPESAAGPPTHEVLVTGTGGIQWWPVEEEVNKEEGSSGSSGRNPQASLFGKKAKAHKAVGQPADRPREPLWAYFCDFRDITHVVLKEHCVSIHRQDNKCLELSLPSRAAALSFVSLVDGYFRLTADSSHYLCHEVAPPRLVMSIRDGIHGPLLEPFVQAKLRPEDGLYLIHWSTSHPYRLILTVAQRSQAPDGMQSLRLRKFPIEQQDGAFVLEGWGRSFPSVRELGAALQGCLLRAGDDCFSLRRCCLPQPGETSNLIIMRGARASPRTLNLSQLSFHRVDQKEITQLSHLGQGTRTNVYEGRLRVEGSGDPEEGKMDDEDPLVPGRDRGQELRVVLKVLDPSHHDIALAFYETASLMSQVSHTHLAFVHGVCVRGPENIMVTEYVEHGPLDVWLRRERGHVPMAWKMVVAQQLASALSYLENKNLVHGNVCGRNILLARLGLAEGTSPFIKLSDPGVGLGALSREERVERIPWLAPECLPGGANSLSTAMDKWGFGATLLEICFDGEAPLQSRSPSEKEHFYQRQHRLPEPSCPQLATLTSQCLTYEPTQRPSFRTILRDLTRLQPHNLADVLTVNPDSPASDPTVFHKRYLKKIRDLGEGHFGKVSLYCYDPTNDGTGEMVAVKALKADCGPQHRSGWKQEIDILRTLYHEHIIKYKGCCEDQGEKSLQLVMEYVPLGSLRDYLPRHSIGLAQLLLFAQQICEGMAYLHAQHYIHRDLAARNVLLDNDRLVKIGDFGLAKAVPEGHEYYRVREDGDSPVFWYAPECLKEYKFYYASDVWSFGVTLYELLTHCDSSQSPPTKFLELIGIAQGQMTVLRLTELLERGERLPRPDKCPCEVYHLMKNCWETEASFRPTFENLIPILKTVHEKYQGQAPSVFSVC

[21] = biological target: T1, Tyrosine-protein kinase JAK1 (Homo sapiens, UniProt P23458)
T1 sequence (P23458 whole entry): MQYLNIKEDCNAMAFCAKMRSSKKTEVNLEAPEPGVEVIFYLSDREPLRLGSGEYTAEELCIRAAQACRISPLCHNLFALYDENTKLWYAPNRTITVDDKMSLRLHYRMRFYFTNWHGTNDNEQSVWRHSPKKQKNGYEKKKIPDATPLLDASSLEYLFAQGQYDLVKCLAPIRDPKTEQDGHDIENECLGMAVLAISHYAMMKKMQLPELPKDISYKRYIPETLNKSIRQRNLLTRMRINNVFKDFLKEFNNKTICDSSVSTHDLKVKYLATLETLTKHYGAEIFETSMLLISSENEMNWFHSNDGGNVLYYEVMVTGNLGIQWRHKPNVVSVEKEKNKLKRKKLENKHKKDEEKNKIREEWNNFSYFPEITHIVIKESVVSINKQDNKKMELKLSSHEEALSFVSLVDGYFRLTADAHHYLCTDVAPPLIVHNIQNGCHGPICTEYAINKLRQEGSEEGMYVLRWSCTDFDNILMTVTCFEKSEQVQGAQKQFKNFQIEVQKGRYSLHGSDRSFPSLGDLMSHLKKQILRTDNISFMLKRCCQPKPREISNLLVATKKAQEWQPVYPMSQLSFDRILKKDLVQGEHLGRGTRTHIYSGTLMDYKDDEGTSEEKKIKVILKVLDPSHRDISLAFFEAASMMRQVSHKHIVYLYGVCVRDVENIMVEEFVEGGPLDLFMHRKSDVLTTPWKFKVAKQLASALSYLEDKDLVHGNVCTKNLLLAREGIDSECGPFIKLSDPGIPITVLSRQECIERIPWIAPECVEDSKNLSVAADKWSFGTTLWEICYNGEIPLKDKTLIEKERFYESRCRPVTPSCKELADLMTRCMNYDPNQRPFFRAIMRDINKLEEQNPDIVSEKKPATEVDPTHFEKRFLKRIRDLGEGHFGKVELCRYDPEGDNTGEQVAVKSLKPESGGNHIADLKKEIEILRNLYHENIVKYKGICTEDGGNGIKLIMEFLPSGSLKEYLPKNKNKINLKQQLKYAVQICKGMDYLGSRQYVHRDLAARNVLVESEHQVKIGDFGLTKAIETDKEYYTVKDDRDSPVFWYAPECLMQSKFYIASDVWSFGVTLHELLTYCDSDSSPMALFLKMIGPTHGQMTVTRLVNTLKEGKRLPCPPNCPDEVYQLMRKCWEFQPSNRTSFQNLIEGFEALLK

[22] = biological target: Tyrosine-protein kinase JAK3 (Homo sapiens, UniProt P52333)
[23] = rat, in vivo, po, 15 mg/kg, 24 h
[24] = biological target: T2, Tyrosine-protein kinase JAK2 (Homo sapiens, UniProt O60674); conditions: dose 500.0 nM
T2 sequence (O60674 whole entry): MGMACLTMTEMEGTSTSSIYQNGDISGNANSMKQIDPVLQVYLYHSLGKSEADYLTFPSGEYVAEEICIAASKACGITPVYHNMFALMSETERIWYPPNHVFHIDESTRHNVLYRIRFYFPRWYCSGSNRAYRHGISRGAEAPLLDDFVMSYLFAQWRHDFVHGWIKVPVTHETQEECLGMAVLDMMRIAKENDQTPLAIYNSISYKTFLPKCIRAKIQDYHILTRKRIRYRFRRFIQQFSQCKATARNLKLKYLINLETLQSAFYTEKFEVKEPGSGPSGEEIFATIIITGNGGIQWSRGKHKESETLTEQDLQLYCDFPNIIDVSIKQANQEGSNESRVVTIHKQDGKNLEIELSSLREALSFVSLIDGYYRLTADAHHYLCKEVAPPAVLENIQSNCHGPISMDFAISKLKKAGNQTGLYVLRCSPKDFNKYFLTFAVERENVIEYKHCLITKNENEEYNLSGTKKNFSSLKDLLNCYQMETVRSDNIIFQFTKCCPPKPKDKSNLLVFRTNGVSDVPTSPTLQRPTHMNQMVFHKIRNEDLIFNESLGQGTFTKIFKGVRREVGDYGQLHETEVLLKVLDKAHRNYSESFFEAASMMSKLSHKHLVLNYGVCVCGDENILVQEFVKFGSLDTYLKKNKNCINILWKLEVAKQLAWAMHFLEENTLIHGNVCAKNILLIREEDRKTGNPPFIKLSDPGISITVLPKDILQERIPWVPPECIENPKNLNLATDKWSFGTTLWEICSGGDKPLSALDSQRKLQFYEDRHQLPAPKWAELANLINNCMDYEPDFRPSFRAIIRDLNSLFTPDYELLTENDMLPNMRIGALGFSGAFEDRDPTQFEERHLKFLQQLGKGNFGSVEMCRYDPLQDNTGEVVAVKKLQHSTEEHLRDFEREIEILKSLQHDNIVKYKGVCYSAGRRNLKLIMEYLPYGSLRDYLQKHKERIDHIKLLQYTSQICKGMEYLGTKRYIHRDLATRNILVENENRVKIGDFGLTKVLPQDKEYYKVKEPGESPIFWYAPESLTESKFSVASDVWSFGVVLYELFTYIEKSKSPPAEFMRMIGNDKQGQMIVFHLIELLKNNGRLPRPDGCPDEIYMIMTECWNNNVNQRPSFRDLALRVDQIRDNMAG

[25] = biological target: T1, Tyrosine-protein kinase JAK1; conditions: dose 500.0 nM
[26] = biological target: Activated CDC42 kinase 1 (Homo sapiens) (UniProt Q07912); conditions: dose 500.0 nM
[27] = biological target: Tyrosine-protein kinase Fyn (Homo sapiens) (UniProt P06241); conditions: dose 500.0 nM
[28] = biological target: Muscle, skeletal receptor tyrosine-protein kinase (Homo sapiens) (UniProt O15146); conditions: dose 500.0 nM
[29] = in vivo; conditions: Sprague-Dawley, rat, po, 15 mg/kg
[30] = in vivo; conditions: Sprague-Dawley, rat, iv, 3 mg/kg
[31] = in vivo; conditions: Sprague-Dawley, rat, po, 15 mg/kg; remark: listed apart in the source
[32] = in vivo; conditions: Sprague-Dawley, rat, po, 15 mg/kg; remark: listed apart in the source
[33] = in vivo; conditions: Sprague-Dawley, rat, po, 15 mg/kg; remark: listed apart in the source
[34] = in vivo; conditions: Sprague-Dawley, rat, iv, 3 mg/kg; remark: listed apart in the source
[35] = in vivo; conditions: Sprague-Dawley, rat, po, 15 mg/kg; remark: listed apart in the source
[36] = in vivo; conditions: Sprague-Dawley, rat, iv, 3 mg/kg; remark: listed apart in the source
[37] = in vivo; conditions: Sprague-Dawley, rat, po, 15 mg/kg; remark: listed apart in the source
[38] = in vivo; conditions: Sprague-Dawley, rat, po, 15 mg/kg; remark: listed apart in the source
[39] = in vivo; conditions: Sprague-Dawley, rat, iv, 3 mg/kg; remark: listed apart in the source
[40] = in vivo; conditions: Sprague-Dawley, rat, iv, 3 mg/kg; remark: listed apart in the source
[41] = in vitro; conditions: Sprague-Dawley, rat, plasma
[42] = in vitro; conditions: Sprague-Dawley, rat, plasma; remark: listed apart in the source
[43] = biological target: T2, Tyrosine-protein kinase JAK2

Histone deacetylase 1, sequence (Q13547 whole entry): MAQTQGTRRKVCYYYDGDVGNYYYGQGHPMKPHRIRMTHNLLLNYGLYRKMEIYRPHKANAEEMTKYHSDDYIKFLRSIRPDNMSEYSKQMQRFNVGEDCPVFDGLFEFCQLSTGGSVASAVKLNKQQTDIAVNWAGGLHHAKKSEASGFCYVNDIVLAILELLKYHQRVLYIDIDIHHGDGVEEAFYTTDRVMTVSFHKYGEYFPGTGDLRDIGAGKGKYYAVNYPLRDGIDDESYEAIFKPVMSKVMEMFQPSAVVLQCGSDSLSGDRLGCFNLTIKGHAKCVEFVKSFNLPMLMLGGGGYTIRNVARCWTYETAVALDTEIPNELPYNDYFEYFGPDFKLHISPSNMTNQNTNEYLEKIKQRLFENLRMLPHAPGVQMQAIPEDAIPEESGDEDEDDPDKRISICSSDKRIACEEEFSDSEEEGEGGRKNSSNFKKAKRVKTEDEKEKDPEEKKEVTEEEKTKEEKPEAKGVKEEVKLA

Structure (SMILES): Cc1cnc(Nc2ccc(OCCCCCCC(=O)NO)cc2)nc1Nc1cccc(S(=O)(=O)NC(C)(C)C)c1
- IC50 [1]: 0.00017 µM
- IC50 [2]: 0.00034 µM
- IC50 [3]: 1.87 µM
- IC50 [4]: 2.58 µM
- IC50 [5]: 0.33 µM
- IC50 [6]: 1.83 µM
- IC50 [7]: 2.88 µM
- IC50 [8]: 0.73 µM
- IC50 [9]: 2.52 µM
- IC50 [10]: 0.303 µM
- IC50 [11]: 0.0587 µM
- IC50 [12]: > 10 µM
- IC50 [13]: > 10 µM
- IC50 [14]: 0.00444 µM
- IC50 [15]: > 10 µM
- IC50 [16]: > 10 µM
- IC50 [17]: > 10 µM
- IC50 [18]: 0.116 µM
- IC50 [19]: 0.724 µM
- IC50 [20]: 0.414 µM
- IC50 [21]: 0.0271 µM
- IC50 [22]: 0.595 µM
- Vd [23]: 13.708 L/kg
- inhibition [24]: > 95%
- inhibition [25]: 80%
- inhibition [26]: 70%
- inhibition [27]: > 95%
- inhibition [28]: 70%
- half-life at 24 h [29]: 2.08 h
- half-life at 24 h [30]: 7.68 min
- Tmax at 24 h [31]: 2.91 h
- Cmax at 24 h [32]: 0.0933 µg/mL
- CL/F at 24 h [33]: 4.56 L/h/kg
- clearance at 24 h [34]: 4.57 L/h/kg
- AUC(0-t) at 24 h [35]: 0.745 µg·h/mL
- AUC(0-t) at 24 h [36]: 0.656 µg·h/mL
- bioavailability at 24 h [37]: 22.7%
- MRT at 24 h [38]: 6.02 h
- Vd at 24 h [39]: 0.845 L/kg
- MRT at 24 h [40]: 0.185 h
- half-life at 22 h [41]: 11.1 h
- AUC(0-t) at 22 h [42]: 217 µg·h/mL

Structure (SMILES): Cc1cnc(Nc2ccc(OCCCCCCC(=O)NO)c(Cl)c2)nc1Nc1cccc(S(=O)(=O)NC(C)(C)C)c1
- IC50 [3]: 4.7 µM
- IC50 [4]: 7.13 µM
- IC50 [5]: 0.81 µM
- IC50 [6]: 6.06 µM
- IC50 [7]: 11.5 µM
- IC50 [8]: 1.43 µM
- IC50 [9]: 4.06 µM

Structure (SMILES): Cc1cnc(Nc2ccc(OCCCCCCC(=O)NO)c(F)c2)nc1Nc1cccc(S(=O)(=O)NC(C)(C)C)c1
- IC50 [1]: 0.0002 µM
- IC50 [2]: 0.00043 µM
- IC50 [3]: 1.22 µM
- IC50 [4]: 3.37 µM
- IC50 [5]: 0.24 µM
- IC50 [6]: 1.98 µM
- IC50 [7]: 3.25 µM
- IC50 [8]: 1.27 µM
- IC50 [9]: 3.04 µM
- IC50 [10]: 0.299 µM
- IC50 [11]: 0.0739 µM
- IC50 [12]: > 10 µM
- IC50 [13]: > 10 µM
- IC50 [14]: 0.00698 µM
- IC50 [15]: > 10 µM
- IC50 [16]: > 10 µM
- IC50 [17]: > 10 µM
- IC50 [18]: 0.127 µM
- IC50 [19]: 0.931 µM
- IC50 [20]: 0.78 µM
- IC50 [21]: 0.041 µM
- IC50 [22]: 0.954 µM
- Vd [23]: 15.411 L/kg
- inhibition [25]: 80%
- inhibition [26]: 70%
- inhibition [27]: 80%
- inhibition [28]: 80%
- half-life at 24 h [29]: 1.81 h
- half-life at 24 h [30]: 6.72 min
- Tmax at 24 h [31]: 2.55 h
- Cmax at 24 h [32]: 0.0791 µg/mL
- CL/F at 24 h [33]: 5.9 L/h/kg
- clearance at 24 h [34]: 5.9 L/h/kg
- AUC(0-t) at 24 h [35]: 0.549 µg·h/mL
- AUC(0-t) at 24 h [36]: 0.508 µg·h/mL
- bioavailability at 24 h [37]: 21.6%
- MRT at 24 h [38]: 5.11 h
- Vd at 24 h [39]: 0.951 L/kg
- MRT at 24 h [40]: 0.161 h
- half-life at 22 h [41]: 8.49 h
- AUC(0-t) at 22 h [42]: 169 µg·h/mL

Structure (SMILES): Cc1cnc(Nc2ccc(OCCCCCCC(=O)NO)c(C(F)(F)F)c2)nc1Nc1cccc(S(=O)(=O)NC(C)(C)C)c1
- IC50 [3]: 5.9 µM
- IC50 [4]: 11.1 µM
- IC50 [5]: 1.08 µM
- IC50 [6]: 8.72 µM
- IC50 [7]: 7.48 µM
- IC50 [8]: 2.24 µM
- IC50 [9]: 4.87 µM

Structure (SMILES): COc1cc(Nc2ncc(C)c(Nc3cccc(S(=O)(=O)NC(C)(C)C)c3)n2)ccc1OCCCCCCC(=O)NO
- IC50 [3]: 5.49 µM
- IC50 [4]: 4.41 µM
- IC50 [5]: 1.65 µM
- IC50 [6]: 4.68 µM
- IC50 [7]: 7.27 µM
- IC50 [8]: 1.49 µM
- IC50 [9]: 3.67 µM

Structure (SMILES): Cc1cnc(Nc2ccc(OCC(=O)NO)cc2)nc1Nc1cccc(S(=O)(=O)NC(C)(C)C)c1
- IC50 [43]: 0.00433 µM

Structure (SMILES): Cc1cnc(Nc2ccc(OCCCC(=O)NO)cc2)nc1Nc1cccc(S(=O)(=O)NC(C)(C)C)c1
- IC50 [43]: 0.0123 µM

Structure (SMILES): Cc1cnc(Nc2ccc(OCCCCCCC(=O)NO)c(Br)c2)nc1Nc1cccc(S(=O)(=O)NC(C)(C)C)c1
- IC50 [3]: 2.07 µM
- IC50 [4]: 12 µM
- IC50 [5]: 0.73 µM
- IC50 [6]: 6.95 µM
- IC50 [7]: 11.9 µM
- IC50 [8]: 2.16 µM
- IC50 [9]: 3.87 µM

Structure (SMILES): Cc1cnc(Nc2ccc(OCCCCCC(=O)NO)c(C(F)(F)F)c2)nc1Nc1cccc(S(=O)(=O)NC(C)(C)C)c1
- IC50 [3]: 3.45 µM
- IC50 [4]: 6.85 µM
- IC50 [5]: 2.44 µM
- IC50 [6]: 2.93 µM
- IC50 [7]: 5.1 µM
- IC50 [8]: 2.91 µM
- IC50 [9]: 2.87 µM

Structure (SMILES): Cc1cnc(Nc2ccc(OCCCCCCCC(=O)NO)cc2)nc1Nc1cccc(S(=O)(=O)NC(C)(C)C)c1
- IC50 [3]: 7.16 µM
- IC50 [4]: 6.5 µM
- IC50 [5]: 1.66 µM
- IC50 [6]: 9.06 µM
- IC50 [7]: 10.9 µM
- IC50 [8]: 2.95 µM
- IC50 [9]: 4.94 µM

Structure (SMILES): Cc1cnc(Nc2ccc(OCCCCCC(=O)NO)cc2)nc1Nc1cccc(S(=O)(=O)NC(C)(C)C)c1
- IC50 [3]: 4.22 µM
- IC50 [4]: 2.58 µM
- IC50 [5]: 2.52 µM
- IC50 [6]: 3.22 µM
- IC50 [7]: 3.96 µM
- IC50 [8]: 2.33 µM
- IC50 [9]: 2.76 µM

Structure (SMILES): Cc1cc(Nc2ncc(C)c(Nc3cccc(S(=O)(=O)NC(C)(C)C)c3)n2)ccc1OCCCCCCC(=O)NO
- IC50 [3]: 8.85 µM
- IC50 [4]: 4.91 µM
- IC50 [5]: 1.73 µM
- IC50 [6]: 8.93 µM
- IC50 [7]: > 50 µM
- IC50 [8]: 3.08 µM
- IC50 [9]: 4.92 µM

Structure (SMILES): Cc1cnc(Nc2ccc(OCCCCCC(=O)NO)c(Cl)c2)nc1Nc1cccc(S(=O)(=O)NC(C)(C)C)c1
- IC50 [3]: 4.37 µM
- IC50 [4]: 6.7 µM
- IC50 [5]: 1.27 µM
- IC50 [6]: 4.84 µM
- IC50 [7]: 7.23 µM
- IC50 [8]: 2.03 µM
- IC50 [9]: 6.29 µM
